Like-named read-outs stand apart in the source and are kept apart here. *1 amine or outer side, *2 acyl side, *3 side chain or, on linkers, in order; H or OH if unused. Where a SMILES comes first, the peptide text is derived from it. Bridges are numbered along the chain shown (N, C = ends). X1 = COc1ccc(C2=C3C=C(S(=O)(=O)O)C([*:2])=[N+]3[B-](F)(F)n3c2cc(S(=O)(=O)O)c3[*:1])cc1; X2 = COc1ccc(C2=C3C=C(S(=O)(=O)O)C([*:1])=[N+]3[B-](F)(F)n3c2cc(S(=O)(=O)O)c3[*:2])cc1
How the values were obtained:
[1] = biological target: TrkB-expressing cells (HEK+B) (UniProt Q16620); test: Cell survival assay in serum-free media, TrkB-expressing cells (HEK+B); format: cell-based; conditions: normalized to DMSO (0%) and 1.0 nM BDNF (100%)
Procedure: Loop mimics 5 were screened in cell survival assays to evaluate their efficacy in stimulating Trk receptors (Figure 2). Mimics were assayed for the ability to rescue cells from cell death when incubated in serum-free media (SFM) in the absence of NTs (a test for “agonism”) or in the presence of a suboptimal NT concentration (a test for NT “modulation”). Simultaneously, these assays may confirm test mimics are not cytotoxic at lower doses (though cytotoxicity assays were also performed up to higher doses, Figure S1). […] All the test compounds were screened at 50 μM concentrations initially, and then, dose response curves were measured for the hits (Table 1 and Figure 3).
We were forced to use transfectants in different cell lines (HeLa, HEK-293, NIH-3T3 expressing TrkA, B, and C, respectively) due to difficulties in obtaining transfected cells derived from a single wild type; however, none of the cells used express TrkA-C prior to transfection. Throughout this paper, HeLa cells are denoted as “HeLa”, and their TrkA transfectants are “HeLa+A”. Similarly, HEK-293 cells are “HEK”; their TrkB transfectants are HEK+B. NIH-3T3 cells are “NIH”, and their TrkC transfectants are “NIH+C”.
Cells were seeded at a density of 2 × 10^3 cells/well in complete media in 96-well plates and incubated for 24 h to allow cells to adhere. Cells were washed with DPBS, and then, media were swapped for serum-free media of the same type as the complete media. Cells were then treated with 50 μM compound either alone or in conjunction with suboptimal neurotrophin corresponding to the Trk receptor expressed for 48 h. Cells were washed with DPBS buffer twice and detached from the plate with 50 μL of trypsin for 3 min at 37 °C. Trypsinization was quenched with 100 μL of complete media. Cells were suspended and live cells counted using flow cytometry (CytoFLEX LX). Cell survival was normalized from cell count (CC) readings relative to optimal neurotrophin (NT = 100%) and DMSO (0%) utilizing GraphPad Prism 10.2, followed by statistical analysis via one-way ANOVA and Dunnett’s t test compared to the DMSO control. Dose response versions of this assay were conducted following the same procedure, but the data was analyzed in GraphPad Prism 10.2 using the nonlinear fit: {agonist} vs response – variable slope (four parameters) function.

[2] = biological target: T1, TrkB (HEK293-TrkB cells) (Homo sapiens, UniProt Q16620); test: Cell-surface fluorescence binding to live HEK293-TrkB cells; conditions: HEK293-TrkB minus HEK293 wild-type fluorescence, 2.5 h
T1 construct: expressed in transfected cells; host or cells: HEK293
Excerpt: Binding of the selective, intrinsically fluorescent mimics to cells can be observed and quantitated via fluorescence. Raw data includes fluorescence associated with material not removed in the washing step (sticky, nonselective binding), and if there were binding to any receptors other than Trk, then fluorescence would be observed for this too. In a second experiment, fluorescence associated with the wild-type cells without Trk expression was similarly recorded to provide a baseline correction representative of that nonselective binding, plus affinity to non-Trk receptors if that occurred. Consequently, fluorescence observed in the noncompetitive experiment minus that in the one using Trk-negative cell lines represents a minimum associated with binding to the expressed Trk receptor. […]
Trk-positive transfected cell lines (HeLa-TrkA, HEK293-TrkB, and NIH3T3-TrkC) and Trk-negative cell lines (HeLa, HEK293, and NIH3T3) were seeded at a density of 2 × 10^3 cells/well in 96-well plates and incubated for 24 h to allow them to adhere. […] Cell associated fluorescence was then determined by measuring emission of the resulting solution on a plate reader (BioTek Synergy H4 Hybrid Reader), λex (540/25 nm) and λem (620/40 nm). […]

[3] = tested on: pMAPK in NIH+C cells; test: ELFI, pMAPK signaling in NIH+C cells, competition with NT; format: cell-based; conditions: competed with 10 ng/mL NT, 1 h
Procedure: (§1) Throughout, the positive control was concentration-dependent treatment with the parent NT in half-log dilutions from 100 ng/mL to 0.1 ng/mL, and the negative control was to treat the cells with only DMSO. We first determined Z′ factors[83] based on these boundary controls. Once the assays had been validated (Z′ > 0.5), we determined optimal times to fix cells after treatment (taking into account potential differences in the kinetics of Trk activation between small molecules and neurotrophins), mimicked dose ranges, and then performed dose response studies.
(§2) Assays were conducted as previously reported.[36] Trk-positive cells (PC12, HEK293-TrkB, and NIH3T3-TrkC) were seeded at a density of 2 × 10^4 cells per well in poly-D-lysine (PDL)-coated 96-well white flat-bottomed plates and allowed to adhere for 24 h. Cells were washed once with SFM and then incubated for 1–2 h in SFM. A serial dilution of compound and/or NT was added, and the cells were incubated for 15 min (agonism experiments) or 1 h (antagonism). […] Cells were washed 6× with WB, and then, levels of phosphorylation were quantified using SuperSignal ELISA Pico Chemiluminescent Substrate (Thermo Scientific). […] IC50 is calculated for 5c(ii) using the {inhibitor} vs response – variable slope (four parameters) function in GraphPad Prism 10.2.

[4] = biological target: TrkA-expressing cells (HeLa+A) (UniProt P04629); test: Cell survival assay in serum-free media, TrkA-expressing cells (HeLa+A); format: cell-based; conditions: Figure 8 summary
Procedure: Cells were seeded at a density of 2 × 10^3 cells/well in complete media in 96-well plates and incubated for 24 h to allow cells to adhere. Cells were washed with DPBS, and then, media were swapped for serum-free media of the same type as the complete media. […] Cells were suspended and live cells counted using flow cytometry (CytoFLEX LX).

[5] = tested on: pAKT in NIH+C cells; test: ELFI, pAKT signaling in NIH+C cells, competition with NT; format: cell-based; conditions: competed with 10 ng/mL NT, 1 h
Procedure: as §1, §2

[6] = tested on: pMAPK in PC12 (TrkA+) cells; test: ELFI, pMAPK signaling in PC12 cells, competition with NT; format: cell-based, rat; conditions: competed with 10 ng/mL NT, 1 h
Procedure: as §1, §2

[7] = tested on: pAKT in PC12 (TrkA+) cells; test: ELFI, pAKT signaling in PC12 cells, competition with NT; format: cell-based, rat; conditions: competed with 10 ng/mL NT, 1 h
Procedure: as §1, §2

[8] = tested on: primary adult cortical neurons; test: Primary adult cortical neuron assay (neurite outgrowth and survival); format: cell-based, mouse; conditions: 5 μM, neurons from 6-week-old male mice
Excerpt: We next decided to test the effects of 5c(ii) on primary mouse adult cortical neurons. These neurons naturally express TrkA[84] and therefore provide a more clinically relevant substrate to test compound leads in than analogous Trk-expressing transfectants. In addition, using neurons extracted from adult mice provide increased relevance to neurodegenerative and other nervous-system related diseases and injury, since most of these primarily occur in adult populations.[85],[86] To determine any potential for preclinical applications, 5c(ii) (5 μM) was incubated with primary cortical neurons from 6-week-old male mice at the time of plating, and neuronal survival and neurite outgrowth were quantified.
Figure 7 5c(ii) promotes neuroprotection. Primary adult cortical neurons were extracted from 6-week-old male mice and plated on 384-well PDL-coated plastic bottom plates at 10,000 cells/well. 5c(ii) at 5 μM concentration was added at the time of plating. 48 h after plating, the cells were fixed to conduct immunocytochemistry. Graph represents the mean ± SEM of (a) total neurite outgrowth per cell and (b) number of valid neurons per well. Representative images of cortical neurons treated with (c) vehicle and (d) 5 μM 5c(ii). Student’s t test. N = 3–5. *p < 0.05.
Cortical neuron assay was conducted as previously described.[85] Briefly, wild-type 6-week-old C57Bl/6 male mice were euthanized using CO2, and the brains were removed. The cortex was isolated and transferred to a MACS C-tube and then dissociated using the Miltenyi gentleMACS octo-dissociator on a preset protocol designed for adult rodent brains. […] Images were quantified using the Neurite Outgrowth Analysis Module in MetaXpress 6 software (Molecular Devices). For quantification, the number of valid neurons is determined by quantifying the number of TUBB3^+/DAPI^+ cells in a well with ≥10 μm of total neurite outgrowth. Total neurite outgrowth is determined by dividing the length of all neurites in a well by the number of valid neurons in that respective well. […]

[9] = parameters: method as in PMID 34451801; conditions: lack of selectivity; cited from earlier work

Sequence of TrkB-expressing cells (HEK+B) (Q16620 32-822): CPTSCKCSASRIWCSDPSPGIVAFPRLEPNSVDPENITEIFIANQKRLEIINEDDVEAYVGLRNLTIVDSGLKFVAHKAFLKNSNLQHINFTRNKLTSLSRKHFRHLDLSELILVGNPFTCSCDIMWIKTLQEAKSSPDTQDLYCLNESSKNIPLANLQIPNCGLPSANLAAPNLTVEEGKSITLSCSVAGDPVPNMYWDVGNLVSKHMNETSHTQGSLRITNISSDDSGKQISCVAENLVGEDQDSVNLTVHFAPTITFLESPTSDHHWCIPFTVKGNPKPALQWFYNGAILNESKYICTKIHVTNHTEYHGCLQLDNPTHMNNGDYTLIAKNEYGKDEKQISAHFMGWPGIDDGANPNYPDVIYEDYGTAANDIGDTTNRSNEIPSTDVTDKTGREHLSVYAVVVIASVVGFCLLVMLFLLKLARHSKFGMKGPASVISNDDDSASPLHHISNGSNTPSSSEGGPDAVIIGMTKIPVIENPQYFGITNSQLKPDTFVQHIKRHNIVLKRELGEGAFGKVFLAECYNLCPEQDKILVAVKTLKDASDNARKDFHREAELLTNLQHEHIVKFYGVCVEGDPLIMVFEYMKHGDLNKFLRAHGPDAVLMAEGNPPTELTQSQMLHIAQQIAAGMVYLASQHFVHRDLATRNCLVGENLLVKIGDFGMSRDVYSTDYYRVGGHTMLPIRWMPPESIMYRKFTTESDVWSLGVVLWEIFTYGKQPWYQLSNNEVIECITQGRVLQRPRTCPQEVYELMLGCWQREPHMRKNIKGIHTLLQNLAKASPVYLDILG
Sequence of TrkA-expressing cells (HeLa+A) (P04629 33-796): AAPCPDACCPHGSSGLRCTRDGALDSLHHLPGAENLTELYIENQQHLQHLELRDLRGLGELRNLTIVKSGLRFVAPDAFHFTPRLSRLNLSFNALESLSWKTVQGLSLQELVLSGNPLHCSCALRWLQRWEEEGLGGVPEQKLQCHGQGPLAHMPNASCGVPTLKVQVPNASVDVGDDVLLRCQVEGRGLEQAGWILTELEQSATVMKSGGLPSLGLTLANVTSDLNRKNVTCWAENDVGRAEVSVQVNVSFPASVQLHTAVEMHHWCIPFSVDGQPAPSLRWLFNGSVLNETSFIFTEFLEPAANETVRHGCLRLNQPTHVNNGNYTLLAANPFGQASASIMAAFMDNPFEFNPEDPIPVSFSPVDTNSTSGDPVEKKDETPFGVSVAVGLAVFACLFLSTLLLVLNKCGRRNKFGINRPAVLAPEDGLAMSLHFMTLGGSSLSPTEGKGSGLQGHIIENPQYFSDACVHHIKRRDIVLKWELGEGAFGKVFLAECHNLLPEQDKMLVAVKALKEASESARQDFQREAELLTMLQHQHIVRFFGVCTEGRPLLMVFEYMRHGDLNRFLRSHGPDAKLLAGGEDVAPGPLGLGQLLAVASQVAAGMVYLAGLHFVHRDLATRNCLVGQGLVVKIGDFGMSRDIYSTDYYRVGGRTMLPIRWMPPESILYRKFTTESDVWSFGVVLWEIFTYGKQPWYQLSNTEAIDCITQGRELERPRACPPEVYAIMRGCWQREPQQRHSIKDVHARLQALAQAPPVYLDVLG

For COc1ccc(C2=C3C=C(S(=O)(=O)O)C4=[N+]3[B-](F)(F)n3c2cc(S(=O)(=O)O)c3SC[C@@H](C(N)=O)NC(=O)CNC(=O)[C@H](CO)NC(=O)[C@H](CCSC)NC(=O)[C@H](CC(=O)O)NC(=O)[C@@H](NC(C)=O)CS4)cc1 [5b(i)] (Ac-CDMSGC-NH2; linker 1-6 via X2), which EC50 ([1]; cell survival with 0.6 nM BDNF, read-out: EC50 (μM) with suboptimal neurotrophin) is on record?
The EC50 was 1.8 µM.

And the EC50 ([1]; dose-dependent cell survival without NT, read-out: EC50)?
Its EC50 is 0.4 µM.

What about the Kd [2] of the same compound?
Its Kd is 73 ± 13 nM.

What does the source list for COc1ccc(C2=C3C=C(S(=O)(=O)O)C4=[N+]3[B-](F)(F)n3c2cc(S(=O)(=O)O)c3SC[C@H](NC(C)=O)C(=O)N[C@@H]([C@@H](C)O)C(=O)N[C@@H](CCC(N)=O)C(=O)N[C@@H](CC(N)=O)C(=O)N[C@@H](CO)C(=O)N[C@H](C(N)=O)CS4)cc1 [5c(ii)] (Ac-CTQNSC-NH2; linker 1-6 via X1; N-terminus and C-terminus assumed)?
IC50 [3]: 35 µM; result (Trk activity assigned) [4]: TrkA modulator; IC50 [5]: 7 µM; IC50 [6]: 7 µM; IC50 [7]: 7 µM; change in neurite outgrowth ([8]; 48 h): no significant change; increase in the number of valid neurons ([8]; after 48 h, vs vehicle): over 50%

Which “number of targets bound” value [9] does the source give for O=c1cc(-c2ccccc2)oc2c(O)c(O)ccc12 [7,8-DHF, 7,8-Dihydroxyflavone] here?
The value was 133.
